{"source": "patent US5422352A", "about": "“Slimming pharmaceutical composition” (Nycomed Dak A/S, priority 1989, dated 1995)", "key": {"[1]": {"experiment": "laboratory methods: fasting serum glucose, triglycerides, cholesterol in obese patients (Example 5)", "format": "in vivo, human", "method": "Blood and urine samples for laboratory tests were taken before entry, and after 12 and 24 weeks.\nMetabolic factors: In order to evaluate changes in the glucose and lipid metabolism of the patients during the study, triglyceride acid (TGA), cholesterol and fasting glucose were analyzed.\nAll clinical-chemical analyses apart from TGA and test strips for urine, were carried out at Department of Clinical Chemistry, Hvidovre Hospital, in accordance with their routine methods and assays, including the department's running quality control. The methods and the assays are routine procedures and are well-documented (7,40-48). TGA was analyzed and test strips for urine assessed at the Department of Internal Medicine, Division of Endocrinology, Hvidovre Hospital's own laboratory following the same routine procedures as above (26).\n(§1) The mean difference of blood pressure, heart rate and laboratory data from the initial values (week 0) at week 12 and at week 24 was compared to initial values for each treatment group by Students' one sample t-test (SAS). Comparison of the treatment groups at a particular visit was done by one-way analysis of variance (SAS.GLM). The difference from initial values was used in order to prevent chance events influencing the results. Patients with high values, for instance, who dropped out would thus influence the mean value at the next control, without a real difference being present."}, "resting skeletal muscle": {"test_system": "resting skeletal muscle", "details": "in vivo; cited from earlier work"}, "[2]": {"experiment": "laboratory methods in healthy volunteers: serum glucose, NEFA, glycerol (Example 2)", "format": "in vivo, human", "details": "oral", "method": "Through the indwelling antecubital cannula, blood was sampled without stasis in iced syringes. The blood samples were then centrifuged at 4° C. and nonesterified fatty acids (NEFA) were immediately extracted from the blood samples and later determined as described in (22). The concentration of glucose in plasma was determined using the glucose oxidase method (23), the concentration of glycerol in plasma was determined as described by Laurell and Tibbling (24), the concentration of lactate in plasma was described using the method described by Noll (25), and the concentration of triglyceride in plasma was determined as described by Giegel (26). Blood samples for the determination of methylxanthine metabolites was collected in tubes containing reduced glutathione and ethylene glycol-bis(β-aminoethyl)-N,N,N',N'-tetraacetic acid (EGTA). Samples were immediately centrifuged and the plasma was stored at -40° C. until the determination of methylxanthines was performed (see Example 4). Immunoreactive insulin, pancreatic glucagon and C-peptide concentrations were measured in the plasma samples using radioimmunoassay kits purchased from Novo, Copenhagen. All plasma aliquots for determination of pancreatic hormones and methylxanthine metabolites were coded and analyzed in a random order to avoid any systematic error due to the order of analysis. The concentrations of sodium and potassium in the plasma samples were determined by flame spectrophotometry."}, "[3]": {"experiment": "thermogenic effect: energy expenditure in healthy volunteers by indirect calorimetry (Example 2)", "format": "in vivo, human", "details": "for Mean energy expenditure during 3 hours: oral single dose, not placebo-corrected; for Energy expenditure greater than placebo: mean±SE, minimum figure", "method": "The study was conducted in two parts. The first part was designed as a placebo-controlled, double-blind trial on the effect of 3 different doses of caffeine, 3 different doses of ephedrine and 2 placebo samples. The order of the tests were not entirely randomized, but organized in a sequence that allowed testing for a carry-over effect.\n6 healthy volunteers of normal weight (3 of each sex) aged between 20 and 32 were included after informed consent was obtained. The average age of the 6 volunteers was 25 (±1) years, height, 179 (±11) cm; body weight, 70 (±13) kg; percentage of overweight, -1.7 (±8.3) % and body fat, 13 (±3) kg. The numbers in parenthesis are the standard deviation. The percentages of overweight was calculated from the individual body weight (IBW) using the midpoint of the medium frame (MMF) given in the Metropolitan Life Insurance Company tables of desirable weights (1): [formula]\nA. Treatment with ephedrine comprising capsules with 10 mg, 20 mg or 40 mg of ephedrine hydrochloride, respectively.\nB. Treatment with caffeine comprising capsules with 100 mg, 200 mg or 400 mg of caffeine, respectively. […]\nThe capsules were administered orally as single doses and swallowed with 300 ml of tap water (20° C.).\nAll blood samples for determination of substrate, metabolite and hormone concentrations were collected form the antecubital vein. Blood samples were taken at -30, 0, 30, 60, 90, 120, 150 and 180 minutes relative to the capsule intake (time 0). The subjects breathed through a low-resistance Scuba one-way mouthpiece. After about 10 minutes of adaptation, expiratory gas was collected in Douglas bags for 10 minute periods. Gas collection was made after each blood sampling.\nEnergy expenditure was measured by indirect calorimetry. Expiratory gas was continuously analyzed for the content of oxygen and carbon dioxide with a Godart Rapox Oxygenmeter and a Beckman LB-1 Medical Gas Analyzer. Respiratory steady state was assumed to be present, when the end-expiratory carbon dioxide fraction was constant. Expiratory gas was collected in Douglas bags and analyzed for the content of oxygen and carbon dioxide with Radiometer gas-electrodes connected to an acid-base analyzer (PHM 71, Copenhagen, Denmark), and the volume of expiration gas was measured with a gas meter. […] The standard gasses were analyzed with a Scholander microtechnique with a measuring error on gas fraction being <0.0005%, i.e. the error on measurement of expired gas being within ±0.1-0.2% (19). […] A fixed protein catabolism was assumed, since the error on calculating the energy expenditure by omitting the exact correction from urinary nitrogen was negligible (20). The energy expenditure was calculated taking de novo lipogenesis into account (21).\nThe responses to a test substance were estimated separately for each subject as the difference between the integrated numerical area of the response curve (by a trapezoidal approach) and the rectangular area determined by the basal values. To estimate the predictive, theoretical effect of combinations of ephedrine and caffeine, the single dose responses were added after subtracting the average placebo response. This calculation was performed separately for each subject before statistical analysis. A two-way analysis of variance for randomized blocks was performed (28) to test differences between experimental periods within the same experiment and to test differences between the responses to different stimuli (test substances). Post-hoc testing was applied to compare two means (28)."}, "[4]": {"details": "ephedrine 50 mg; ephedrine plus caffeine 50 mg+100 mg; oral, 4 months; cited from earlier work"}, "[5]": {"experiment": "adverse drug reactions in obese patients, 24 weeks (Example 5)", "format": "in vivo, human", "description": "14 days after discontinuation of the treatment, a psychiatrist recorded any inconveniences the patient might have had during this period and physical and psychological symptoms were registered."}, "[6]": {"experiment": "safety evaluation in healthy volunteers: side effects, blood pressure, heart rate (Example 2)", "format": "in vivo, human", "details": "40 mg ephedrine hydrochloride", "method": "Arterial blood pressure was measured in the right arm by a sphygmomanometer a.m. Riva-Rocci, and heart rate was determined by palpation of the peripheral heart rate in the ipsilateral radial artery. These measurements were performed after each sampling of blood.\nA \"Trimline\" apparatus manufactured by PyMaH (Copenhagen) was used to measure the arterial blood pressure. A cuff 12-14 cm in width was employed. […] The diastolic blood pressure was determined as the manometer pressure when the Korotkoff sound quality changes from tapping to muffled.\nAt the end of each study comprising oral administration of the actual test substance, subjective feelings of side-effects were assessed by questioning the experimental subjects."}, "[7]": {"experiment": "blood pressure and heart rate in obese patients, 24 weeks (Example 5)", "format": "in vivo, human", "details": "week 24", "method": "Blood pressure was measured with a Trimline Sphygmomanometer (PyMaH) by the investigator every 4 weeks. After at least 10 minutes rest, the measurements were carried out in the right arm of the patient a.m. Riva-Rocci with the patient being positioned in a sitting position. A cuff of 14 to 16 cm width was employed. […] The diastolic blood pressure was determined at the manometer pressure when the Korotkoff sound quality changes from tapping to muffled.\nThe heart rate was determined by palpation of the peripheral heart rate in the right radial artery.\nas §1"}, "[8]": {"details": "18 weeks, 2+2+1 tablet per day; cited from earlier work"}, "[9]": {"details": "3 ppm (3 mg/kg feed); cited from earlier work"}, "[10]": {"details": "week 12, difference from initial"}, "[11]": {"details": "week 24, difference from initial"}}, "note": "Counter-ions that a name gives are not always drawn."}
{"smiles": "CN[C@@H](C)[C@H](O)c1ccccc1", "note": "[Ephedrine, ephedrine hydrochloride]", "values": [{"measurement": "Mean difference in fasting serum glucose", "setting": "[1]; [10]", "result": -0.55, "unit": "mmol/L"}, {"measurement": "Mean difference in serum triglycerides", "setting": "[1]; [10]", "result": -0.14, "unit": "mmol/L"}, {"measurement": "Mean difference in fasting serum cholesterol", "setting": "[1]; [11]", "result": -0.18, "unit": "mmol/L"}, {"measurement": "Mean difference in fasting serum glucose", "setting": "[1]; [11]", "result": -0.46, "unit": "mmol/L"}, {"measurement": "Mean difference in serum triglycerides", "setting": "[1]; [11]", "result": -0.66, "unit": "mmol/L"}, {"measurement": "contribution of resting skeletal muscle to whole body thermogenesis induced", "setting": "resting skeletal muscle", "result": "at least 50%"}, {"measurement": "serum nonesterified fatty acids and glycerol (in words)", "setting": "[2]", "result": "increased the concentrations of NEFA and glycerol in the serum"}, {"measurement": "serum glucose (in words)", "setting": "[2]; vs placebo", "result": "hyperglycemic effect"}, {"measurement": "Energy expenditure/(placebo value)", "setting": "[3]; 10 mg ephedrine hydrochloride", "result": 3.5}, {"measurement": "Mean energy expenditure during 3 hours", "setting": "[3]; 10 mg ephedrine hydrochloride", "result": 22.2, "unit": "kcal/3 h"}, {"measurement": "Energy expenditure greater than placebo", "setting": "[3]; 10 mg ephedrine hydrochloride", "result": "16.0±10.9", "unit": "kcal/3 h"}, {"measurement": "Energy expenditure/(placebo value)", "setting": "[3]; 20 mg ephedrine hydrochloride", "result": 2.0}, {"measurement": "Mean energy expenditure during 3 hours", "setting": "[3]; 20 mg ephedrine hydrochloride", "result": 12.5, "unit": "kcal/3 h"}, {"measurement": "Energy expenditure greater than placebo", "setting": "[3]; 20 mg ephedrine hydrochloride", "result": "6.3±5.3", "unit": "kcal/3 h"}, {"measurement": "Energy expenditure/(placebo value)", "setting": "[3]; 40 mg ephedrine hydrochloride", "result": 3.0}, {"measurement": "Mean energy expenditure during 3 hours", "setting": "[3]; 40 mg ephedrine hydrochloride", "result": 18.3, "unit": "kcal/3 h"}, {"measurement": "Energy expenditure greater than placebo", "setting": "[3]; 40 mg ephedrine hydrochloride", "result": "12.1±4.9", "unit": "kcal/3 h"}, {"measurement": "thermogenic effect (in words)", "setting": "[3]; human, in vivo", "result": "possess thermogenic activity"}, {"measurement": "weight loss (in words)", "setting": "[4]", "result": "no significant difference in weight loss"}, {"measurement": "Patients complaining of adverse drug reactions", "setting": "[5]; 24 weeks", "result": 20, "unit": "patients"}, {"measurement": "Patients withdrawn due to adverse drug reactions", "setting": "[5]; 24 weeks", "result": 1}, {"measurement": "adverse reactions / withdrawal symptoms (in words)", "setting": "[5]; human, in vivo", "result": "34 patient complained of hunger, especially those who had been treated with ephedrine"}, {"measurement": "systolic blood pressure and heart rate (in words)", "setting": "[6]", "result": "excessive increase in systolic blood pressure and heart rate"}, {"measurement": "Average diastolic blood pressure decrease", "setting": "[7]", "result": 6.9, "unit": "mmHg"}, {"measurement": "Average diastolic blood pressure decrease, % of initial value", "setting": "[7]", "result": 8.6, "unit": "%"}, {"measurement": "Average systolic blood pressure decrease", "setting": "[7]", "result": 8.7, "unit": "mmHg"}, {"measurement": "Average systolic blood pressure decrease, % of initial value", "setting": "[7]", "result": 7.0, "unit": "%"}, {"measurement": "Average heart rate decrease", "setting": "[7]; negative = increase", "result": -3.1, "unit": "BPM"}, {"measurement": "Average heart rate decrease, % of initial value", "setting": "[7]; negative = increase", "result": -4.3, "unit": "%"}, {"measurement": "average weight loss", "setting": "[8]", "result": 7.9, "unit": "kg"}]}
{"smiles": "CC(C)(C)NCC(O)c1ccc(O)c(CO)c1", "note": "(stereo not shown) [salbutamol]", "values": [{"measurement": "fat and protein accretion (in words)", "setting": "[9]", "result": "decreases fat accretion and increases protein accretion in growing pigs"}]}
